The record followed here is ChEMBL document CHEMBL1201862, “PubChem BioAssay data set” (2004).

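Protocol summary: plate cells (96-well), add compound at 5 concentrations, incubate 48 h, interpolate endpoints linearly. GI50 marks 50% less growth.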 Activity calls are given as the source filed them. No stated cut-off is given here; in the data, active = GI50 up to about 1.1 µM and inactive = higher. Bounds are passed on as bounds.

Common to all, as to assay: NCI-60 cell line screen, 48 h
Test [1] deals with ACHN.
Test [2] relates to CCRF-CEM.
Test [3] relates to EKVX.
Test [4] relates to HCT-116.
The test system of test [5] is HL-60.
For test [6], the system named is HT-29.
Test [7] has as its system IGROV-1.
Test [8] relates to MDA-MB-231.
Test [9] relates to MDA-MB-435.
The subject of test [10] is Malme-3M.
Test [11] concerns NCI-H226.
Test [12] deals with NCI/ADR-RES.
Test [13] deals with OVCAR-3.
Test [14] deals with PC-3.
For test [15], the system named is RXF 393.
For test [16], the system named is SN12C.
The subject of test [17] is T47D.
For test [18], the system named is TK-10.
Test [19] has as its system UO-31.
In test [20] the test system is OVCAR-4.

For the compound `CC1=NNC(=O)C1C1(C(=O)O)CC(c2c[nH]c3ccccc23)=NC(=S)N1` (stereo not given), the GI50 in [1] was 33.5 µM (inactive); in test [2], 27.2 µM (inactive); in test [3], 20 µM (inactive); in test [4], 32.8 µM (inactive); in test [5], 38.3 µM (inactive); in test [6], 26.3 µM (inactive). Further, the GI50 in [7] is 0.224 µM (active); in test [8], 24.3 µM (inactive); in [9], 35.5 µM (inactive); in test [10], 19 µM (inactive); in [11], 10.1 µM (inactive); in test [12] it was 46.8 µM (inactive). Moreover, the GI50 in test [13] was 18.5 µM (inactive); in test [14], 27.5 µM (inactive); in [15], 28.1 µM (inactive); in test [16], 40 µM (inactive); in [17], 29 µM (inactive); in [18] it was > 100 µM (inactive). For the same compound, the GI50 in [19] is 29.8 µM (inactive).
Consider `CNC(=O)OCc1c(COC(=O)NC)c(-c2ccc(Cl)c(Cl)c2)n2c1SCC2`, for which the GI50 is 3.61 µM (inactive) in test [1]; 13.4 µM (inactive) in test [2]; 19.8 µM (inactive) in [3]; 11.5 µM (inactive) in test [4]; 7.29 µM (inactive) in test [5]; 10 µM (inactive) in test [6]. The GI50 in test [8] is 10.8 µM (inactive); in test [9], 18 µM (inactive); in [10], 22.7 µM (inactive); in test [11] it was 0.387 µM (active); in test [12] it was 16 µM (inactive); in test [13], 16.7 µM (inactive). Also, the GI50 was 17.1 µM (inactive) in [14]; 3.31 µM (inactive) in test [15]; 13 µM (inactive) in test [16]; 8.81 µM (inactive) in test [17]; 2.86 µM (inactive) in test [18]; 7.46 µM (inactive) in [19].
For the compound `CC(=O)Nc1ccc(C2SCc3nc4ccccc4n32)cc1` (stereo not given), the GI50 in test [1] is 96.4 µM (inactive); in [2], > 100 µM (inactive); in [3] it was 87.9 µM (inactive); in test [4], > 100 µM (inactive); in [5], 82 µM (inactive); in [6], > 100 µM (inactive). Moreover, the GI50 in test [7] was > 91 µM (inactive); in test [8], 26.2 µM (inactive); in test [9] it was > 100 µM (inactive); in test [10] it was 34.7 µM (inactive); in [12], 33.5 µM (inactive); in [13], > 100 µM (inactive). Moreover, the GI50 was 38.4 µM (inactive) in test [20]; 87.7 µM (inactive) in [14]; > 100 µM (inactive) in test [15]; > 100 µM (inactive) in test [16]; 48.9 µM (inactive) in [17]; 22.6 µM (inactive) in test [18]. Besides, the GI50 in test [19] was 44.3 µM (inactive).
Turning to `CC(C)(C)c1ccc(-n2c3nc(=O)n(-c4ccccc4C(F)(F)F)c(=O)c-3cc3ccccc32)cc1`, the GI50 was 15.8 µM (inactive) in test [1]; 13.3 µM (inactive) in test [2]; 18.6 µM (inactive) in [3]; 10.5 µM (inactive) in test [4]; 9.77 µM (inactive) in test [5]; 8.32 µM (inactive) in test [6]. In addition, the GI50 in [7] is 29.1 µM (inactive); in test [8], 23.8 µM (inactive); in test [9], 15.6 µM (inactive); in [11], 17 µM (inactive); in test [12], 23.4 µM (inactive); in test [13], 13.6 µM (inactive). The GI50 in [20] was 27.5 µM (inactive); in [14], 17 µM (inactive); in test [15] it was 24.2 µM (inactive); in test [16], 20.2 µM (inactive); in [17] it was 22.9 µM (inactive); in test [18], 51.9 µM (inactive). Moreover, in [19], the GI50 was 20.7 µM (inactive).
Take `Cn1c(=O)c2nc(CCCCc3nc4c(=O)n(C)c(=S)n(C)c4[nH]3)[nH]c2n(C)c1=S`: the GI50 was > 100 µM (inactive) in [1]; > 100 µM (inactive) in test [2]; 23.4 µM (inactive) in test [3]; > 100 µM (inactive) in test [4]; > 100 µM (inactive) in test [6]; > 100 µM (inactive) in [7]. Also, the GI50 in test [8], in test [9], in test [10], in test [11], in test [12] and in [13] was > 100 µM (inactive) throughout. In addition, the GI50 in [20], in test [14], in test [15], in [16], in test [17] and in test [18] was > 100 µM (inactive) throughout. Further, in test [19], the GI50 is > 100 µM (inactive).
As to `O=C(OCC(OC(=O)c1ccccc1)C1CC(C(O)C2CCCCC2)C(=O)O1)c1ccccc1` (stereo not given), the GI50 is > 100 µM (inactive) in test [1]; 22.5 µM (inactive) in test [2]; > 100 µM (inactive) in [3]; 31.6 µM (inactive) in test [4]; 16.4 µM (inactive) in test [5]; 32.2 µM (inactive) in [7]. Further, the GI50 was > 100 µM (inactive) in [8]; > 100 µM (inactive) in test [9]; 87.7 µM (inactive) in test [11]; 23.2 µM (inactive) in [12]; 35.3 µM (inactive) in test [13]; 32.7 µM (inactive) in [20]. Further, the GI50 in test [14] was 45.7 µM (inactive); in test [15], > 100 µM (inactive); in [16] it was 47.6 µM (inactive); in [17], 37.2 µM (inactive); in test [18], > 100 µM (inactive); in test [19], > 100 µM (inactive).
With `O=C1Nc2cccc(Cl)c2/C1=C\c1c(Cl)nc2n1CCS2`, the GI50 in [1] is > 100 µM (inactive); in test [2] it was > 100 µM (inactive); in test [3] it was 84.7 µM (inactive); in [4], > 100 µM (inactive); in test [5], > 100 µM (inactive); in [6], > 100 µM (inactive). The GI50 in test [7] was > 100 µM (inactive); in [8], > 100 µM (inactive); in test [9], 35.1 µM (inactive); in test [10], > 100 µM (inactive); in test [12], > 100 µM (inactive); in [13], > 100 µM (inactive). Besides, the GI50 in [14] was > 100 µM (inactive); in [15] it was 53.2 µM (inactive); in test [16] it was > 100 µM (inactive); in test [17] it was 48.3 µM (inactive); in test [18], 60.7 µM (inactive); in test [19], > 100 µM (inactive).
On to `COC(=O)C(Cc1ccccc1)NP(=O)(O)OCC1OC(n2cc(I)c(=O)[nH]c2=O)CC1O` (stereo not given), for which the GI50 in [1], in [2], in test [3], in test [4], in test [5] and in [6] was > 100 µM (inactive) in each case. In addition, the GI50 in test [7], in test [8], in test [9], in test [10], in test [11] and in [12] was > 100 µM (inactive) in each case. Also, the GI50 in [13], in [20], in test [14], in [16], in test [17] and in test [18] was > 100 µM (inactive) each time. In addition, the GI50 in test [19] is > 100 µM (inactive).
In the case of `O=c1cc(CNC2CC3CCC2C3)[nH]c(=O)[nH]1` (stereo not given), the GI50 in [1], in [2], in [3], in test [4], in [5] and in test [6] was > 100 µM (inactive) in each case. For the same compound, the GI50 in test [7], in test [8], in [9], in test [10], in test [12] and in [13] was > 100 µM (inactive) throughout. Moreover, the GI50 in [20], in [14], in test [15], in [16], in test [17] and in test [18] was > 100 µM (inactive) in each case. Besides, the GI50 in test [19] is > 100 µM (inactive).
Turning to `C=C(CN)CO[Si](C)(C)C(C)(C)C`, the GI50 in test [1], in [2], in [3], in [4], in [5] and in [6] was > 100 µM (inactive) each time. Besides, the GI50 in test [7], in test [8], in test [9], in test [10], in test [11] and in [12] was > 100 µM (inactive) in each case. For the same compound, the GI50 in [13] is > 100 µM (inactive); in test [14] it was > 100 µM (inactive); in test [16], > 100 µM (inactive); in test [17], > 100 µM (inactive); in test [18], 77.1 µM (inactive); in test [19], > 100 µM (inactive).
For the compound `C=C(C)C1CC2=C(O1)C(=O)c1cccc(O)c1C2=O` (stereo not given), the GI50 in [1] is 1.72 µM (inactive); in [2], 0.209 µM (active); in test [3], 1.17 µM (inactive); in test [4], 10.9 µM (inactive); in [6], 1.59 µM (inactive); in [7], 0.256 µM (active). Further, the GI50 was 1.82 µM (inactive) in [8]; 0.129 µM (active) in [9]; 1.08 µM (active) in test [10]; 1.78 µM (inactive) in test [11]; 1.05 µM (active) in test [12]; 0.214 µM (active) in test [13]. Moreover, the GI50 in test [20] was 0.327 µM (active); in [14], 1.69 µM (inactive); in test [15], 1.04 µM (active); in test [16], 1.21 µM (inactive); in [17], 1.23 µM (inactive); in [18] it was 2.5 µM (inactive). Also, the GI50 in [19] is 1.41 µM (inactive).
